Measured values published in publication PMC7377239, “Cardiovascular Effects of Polychlorinated Biphenyls and Their Major Metabolites” (Environmental Health Perspectives, 2020).
Like-named read-outs stand apart in the source and are kept apart here.

Test system: iCell cardiomyocytes (human iPSC-derived cardiomyocytes)
Assay: High-content imaging of cytotoxicity and mitochondrial integrity in iPSC-CMs
Format: cell-based
Conditions: for viability at 0.01 µM / activity at 0.01 µM / viability at 0.1 µM / activity at 0.1 µM / viability at 1 µM / activity at 1 µM / viability at 10 µM / activity at 10 µM / viability at 100 µM / activity at 100 µM / minimal effective concentration: Homo sapiens; for viability at 0.01 µM / activity at 0.01 µM / viability at 0.1 µM / activity at 0.1 µM / viability at 1 µM / activity at 1 µM / viability at 10 µM / activity at 10 µM / viability at 100 µM / activity at 100 µM: 0.00 µM = 100.00; for viability at 0.1 µM / activity at 0.1 µM: 0.10 µM
Summary of the method: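 This assay measured cytotoxicity and mitochondrial integrity in iPSC cardiomyocytes held in 40μL maintenance medium. After compound exposure, a 2× staining solution with Hoechst 33342 (4μg/mL) and MitoTracker™ Orange (0.4μM) was applied for 15 min at 37°C. Cells were washed, fixed with 3.7% formaldehyde, imaged on DAPI and Cy3 channels, and scored in MetaXpress®.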

[1] = Cardiomyocyte, 1.5 h, read-out: cm.cam.90min
[2] = Cardiomyocyte, 1.5 h, read-out: cm.mii.90min
[3] = Cardiomyocyte, 1.5 h, read-out: cm.mito.90min
[4] = Cardiomyocyte, 1.5 h, read-out: cm.tc.90min
[5] = Cardiomyocyte, 24 h, read-out: cm.cam.24hrs
[6] = Cardiomyocyte, 24 h, read-out: cm.mii.24hrs
[7] = Cardiomyocyte, 24 h, read-out: cm.mito.24hrs
[8] = Cardiomyocyte, 24 h, read-out: cm.tc.24hrs
[9] = iPSC-CM, 1.5 h, iPSC-CM, read-out: cm.cam.90min POD
[10] = iPSC-CM, 1.5 h, iPSC-CM, read-out: cm.mii.90min POD
[11] = iPSC-CM, 1.5 h, iPSC-CM, read-out: cm.mito.90min POD
[12] = iPSC-CM, 1.5 h, iPSC-CM, read-out: cm.tc.90min POD
[13] = iPSC-CM, 24 h, iPSC-CM, read-out: cm.cam.24hrs POD
[14] = iPSC-CM, 24 h, iPSC-CM, read-out: cm.mii.24hrs POD
[15] = iPSC-CM, 24 h, iPSC-CM, read-out: cm.mito.24hrs POD
[16] = iPSC-CM, 24 h, iPSC-CM, read-out: cm.tc.24hrs POD
[17] = Cardiomyocyte, 1.5 h, cardiomyocytes (cm), cam, 90 min, read-out: POD cm.cam.90min
[18] = Cardiomyocyte, 1.5 h, cardiomyocytes (cm), mii, 90 min, read-out: POD cm.mii.90min
[19] = Cardiomyocyte, 1.5 h, cardiomyocytes (cm), mito, 90 min, read-out: POD cm.mito.90min
[20] = Cardiomyocyte, 1.5 h, cardiomyocytes (cm), tc, 90 min, read-out: POD cm.tc.90min
[21] = Cardiomyocyte, 24 h, cardiomyocytes (cm), cam, 24 hrs, read-out: POD cm.cam.24hrs
[22] = Cardiomyocyte, 24 h, cardiomyocytes (cm), mii, 24 hrs, read-out: POD cm.mii.24hrs
[23] = Cardiomyocyte, 24 h, cardiomyocytes (cm), mito, 24 hrs, read-out: POD cm.mito.24hrs
[24] = Cardiomyocyte, 24 h, cardiomyocytes (cm), tc, 24 hrs, read-out: POD cm.tc.24hrs

SMILES: COc1ccc(-c2cccc(Cl)c2)cc1Cl [4-OMe PCB11]
- viability at 0.01 µM [1]: 89.1%
- activity at 0.01 µM [2]: 112%
- activity at 0.01 µM [3]: 87.5%
- viability at 0.01 µM [4]: 89.6%
- viability at 0.1 µM [1]: 101%
- activity at 0.1 µM [2]: 93.8%
- activity at 0.1 µM [3]: 101%
- viability at 0.1 µM [4]: 101%
- viability at 1 µM [1]: 96.5%
- activity at 1 µM [2]: 94.7%
- activity at 1 µM [3]: 96.6%
- viability at 1 µM [4]: 96.7%
- viability at 10 µM [1]: 99.9%
- activity at 10 µM [2]: 109%
- activity at 10 µM [3]: 100%
- viability at 10 µM [4]: 100%
- viability at 100 µM [1]: 3.43%
- activity at 100 µM [2]: 74.3%
- activity at 100 µM [3]: 2.03%
- viability at 100 µM [4]: 3.76%
- viability at 0.01 µM [5]: 95.2%
- activity at 0.01 µM [6]: 95.8%
- activity at 0.01 µM [7]: 97.8%
- viability at 0.01 µM [8]: 97.4%
- viability at 0.1 µM [5]: 102%
- activity at 0.1 µM [6]: 88.6%
- activity at 0.1 µM [7]: 104%
- viability at 0.1 µM [8]: 103%
- viability at 1 µM [5]: 95.3%
- activity at 1 µM [6]: 107%
- activity at 1 µM [7]: 93.6%
- viability at 1 µM [8]: 95.6%
- viability at 10 µM [5]: 102%
- activity at 10 µM [6]: 85.8%
- activity at 10 µM [7]: 103%
- viability at 10 µM [8]: 103%
- viability at 100 µM [5]: 2.29%
- activity at 100 µM [6]: 34.1%
- activity at 100 µM [7]: 0.46%
- viability at 100 µM [8]: 2.4%
- minimal effective concentration [9]: 33.8 µM
- minimal effective concentration [10]: 62.2 µM
- minimal effective concentration [11]: 29.1 µM
- minimal effective concentration [12]: 28.6 µM
- minimal effective concentration [13]: 37.2 µM
- minimal effective concentration [14]: 10.8 µM
- minimal effective concentration [15]: 31.1 µM
- minimal effective concentration [16]: 33.4 µM

SMILES: Oc1ccc(-c2ccc(Cl)cc2)cc1 [4'-OH PCB3]
- viability at 0.01 µM [1]: 98.1%
- activity at 0.01 µM [2]: 97%
- activity at 0.01 µM [3]: 98.1%
- viability at 0.01 µM [4]: 98.1%
- viability at 0.1 µM [1]: 101%
- activity at 0.1 µM [2]: 100%
- activity at 0.1 µM [3]: 101%
- viability at 0.1 µM [4]: 102%
- viability at 1 µM [1]: 100%
- activity at 1 µM [2]: 98.2%
- activity at 1 µM [3]: 100%
- viability at 1 µM [4]: 100%
- viability at 10 µM [1]: 98%
- activity at 10 µM [2]: 98.5%
- activity at 10 µM [3]: 97.9%
- viability at 10 µM [4]: 97.9%
- viability at 100 µM [1]: 0%
- activity at 100 µM [2]: 0%
- activity at 100 µM [3]: 0%
- viability at 100 µM [4]: 0.0231%
- viability at 0.01 µM [5]: 98.2%
- activity at 0.01 µM [6]: 96.5%
- activity at 0.01 µM [7]: 95.9%
- viability at 0.01 µM [8]: 98.1%
- viability at 0.1 µM [5]: 99.2%
- activity at 0.1 µM [6]: 99.8%
- activity at 0.1 µM [7]: 97.4%
- viability at 0.1 µM [8]: 99%
- viability at 1 µM [5]: 104%
- activity at 1 µM [6]: 106%
- activity at 1 µM [7]: 103%
- viability at 1 µM [8]: 105%
- viability at 10 µM [5]: 102%
- activity at 10 µM [6]: 93.5%
- activity at 10 µM [7]: 103%
- viability at 10 µM [8]: 102%
- viability at 100 µM [5]: 0.07%
- activity at 100 µM [6]: 9.32%
- activity at 100 µM [7]: 0.05%
- viability at 100 µM [8]: 0.07%
- minimal effective concentration [9]: 12.4 µM
- minimal effective concentration [10]: 16 µM
- minimal effective concentration [11]: 11.5 µM
- minimal effective concentration [12]: 11.3 µM
- minimal effective concentration [13]: 32.3 µM
- minimal effective concentration [14]: 15.4 µM
- minimal effective concentration [15]: 37.2 µM
- minimal effective concentration [16]: 38.4 µM

SMILES: Oc1cc(Cl)c(-c2cc(Cl)ccc2Cl)cc1Cl [4-OH-PCB 52]
- minimal effective concentration [17]: 8.86 µM
- minimal effective concentration [18]: 45.7 µM
- minimal effective concentration [19]: 8.61 µM
- minimal effective concentration [20]: 8.75 µM
- minimal effective concentration [21]: 32.7 µM
- minimal effective concentration [22]: 65.1 µM
- minimal effective concentration [23]: 36.7 µM
- minimal effective concentration [24]: 41.4 µM

SMILES: Clc1ccc(-c2cc(Cl)c(Cl)c(Cl)c2)cc1Cl [PCB 126, 3,3′,4,4′,5-pentachlorobiphenyl]
- minimal effective concentration [17]: 100 µM
- minimal effective concentration [18]: 100 µM
- minimal effective concentration [19]: 100 µM
- minimal effective concentration [20]: 100 µM
- minimal effective concentration [21]: 7.03 µM
- minimal effective concentration [22]: 100 µM
- minimal effective concentration [23]: 7.54 µM
- minimal effective concentration [24]: 6.48 µM
- effect on cell viability in iPSC-CMs (iPSC-CMs, 0.01-100 μM, 90 min and 24 h): little effect on cell viability

SMILES: Oc1ccc(-c2cccc(Cl)c2)cc1Cl [4-OH-PCB 11]
- minimal effective concentration [17]: 27.7 µM
- minimal effective concentration [18]: 32.7 µM
- minimal effective concentration [19]: 40.1 µM
- minimal effective concentration [20]: 36.2 µM
- minimal effective concentration [21]: 8.57 µM
- minimal effective concentration [22]: 43.2 µM
- minimal effective concentration [23]: 7.94 µM
- minimal effective concentration [24]: 8.62 µM
